Results from publication PMC5201249, “Agrobacterium tumefaciens estC, Encoding an Enzyme Containing Esterase Activity, Is Regulated by EstR, a Regulator in the MarR Family” (PLoS ONE, 2016).

Target: T1, EstR (Atu5211) (Agrobacterium fabrum, UniProt A9CLK2)
T1 construct: full length, non-tagged, pETBlue-2, E. coli BL21(DE3), heparin and Q-Sepharose columns
T1 sequence (A9CLK2 1-155): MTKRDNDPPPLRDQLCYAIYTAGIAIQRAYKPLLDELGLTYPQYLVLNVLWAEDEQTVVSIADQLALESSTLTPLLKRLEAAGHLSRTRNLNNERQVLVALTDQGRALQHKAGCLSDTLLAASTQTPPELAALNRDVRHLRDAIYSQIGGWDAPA
Test: gel mobility shift: loss of EstR binding to […]-labelled 314-bp estR-estC promoter DNA
Settings: 1 mM CHP; pH 7.0, 25 C; covalent (oxidation of sensing Cys16)

CC(C)(OO)c1ccccc1 [CHP, cumene hydroperoxide]
gel mobility shift: loss of EstR binding to 32P-labelled 314-bp estR-estC promot: prior CHP treatment of EstR prevented the repressor from binding to the promoter fragment
